Experimental data reported in the NIST ThermoML archive (doi:10.1016/j.fluid.2006.10.025).
Several values for one entry are separate records, joined by “and”; a condition that tells them apart may be missing. Identical values can stand only once.

Conditions: 101.33 kPa, Liquid

OCC(F)(F)C(F)(F)C(F)(F)C(F)(F)C(F)(F)C(F)F [1,1,7-trihydrododecafluoroheptan-1-ol]
Conditions	mass density
293.15 K	1750.1 kg/m3 and 1750.2 kg/m3
303.15 K	1732.7 kg/m3
313.15 K	1715 kg/m3
323.15 K	1696.9 kg/m3
333.15 K	1678.5 kg/m3
343.15 K	1659.7 kg/m3
